Laboratory results: patent EP0212822A1, “A composition containing a plant growth regulator and an alkanol and a method of using the same” (ICI AMERICAS INC., priority 1985, dated 1987)

How the values were obtained:
Water Oak = test: Trunk injection, holes at 8 inch intervals, Retardation and Uniformity Ratings; type: in vivo, Quercus nigra (Water Oak); parameters: key to Uniformity Rating (U): 0 = no effect from PGR; 1 = poor; 2 = fair; 3 = acceptable; 4 = very good; 5 = excellent; key to Retardation Rating (R): 0 = no retardataion; 1 = 1-20% retardation; 2 = 21-40% retardation; 3 = 41-60% retardation; 4 = 61-80% retardation; 5 = 81-100% retardation; conditions: 75 ml/hole
Experimental: (§1) The examples which follow exemplify the improvements obtained by this invention. However, these examples are not intended to limit the scope of the invention. In Examples 1-41, the subject trees were injected at a distance approximately one foot from the soil line by drilling 7/32 inch diameter holes to a 2 inch depth at a 30-45° angle tangential to the trunk with a pressure injector (150 psi) purchased from the Asplundh Tree Expert Co., Company No. 346-3502. The results are expressed in terms of Retardation and Uniformity Ratings. The Retardation rating scale is as follows: • 0 = no retardataion • 1 = 1-20% retardation • 2 = 21-40% retardation • 3 = 41-60% retardation • 4 = 61-80% retardation • 5 = 81-100% retardation
(§2) The Uniformity Rating is a measure of the consistency of response to the treatment between different branches of the tree. The Uniformity scale employed is as follows: • 0 = no effect from PGR • 1 = poor • 2 = fair • 3 = acceptable • 4 = very good • 5 = excellent
(§3) 10 (0.034 moles), 20 (0.068 moles) and 40 grams (0.136 moles) of (2RS, 3RS)-1-(4-chlorophenyl)-4,4-dimethyl-2-1,2,4-triazol-1-yl)pentan-3-ol (PGR) was dissolved in 1,1 and 1 liter, respectively, of methanol at room temperature and was stirred until the solution was clear, approximately 20 to 60 minutes. In these examples, the injection holes were placed at approximate 8 inch intervals.

[1] = Solubility in methanol water mixtures (HPLC and UV absorption); type: physicochemical
Experimental: An excess of compound of formula (II) was shaken with methanol water mixtures for a minimum of 4 hours. Samples were passed through a micropore filter to remove undissolved solid, and then centrifuged to remove any emulsified material. The resulting saturated solutions were analyzed by both HPLC and UV absorption against known standard solutions. […] In water alone, solubility is only 35 mg 1^-1 (ppm). Thus, formulations of formula (II) in methanol are low in viscosity when injected, and the PGR will rapidly precipitate within the trunk as the methanol becomes diluted with transpiration water.

Willow Oak = test: Trunk injection, holes at 4 inch intervals, Retardation and Uniformity Ratings; type: in vivo, Quercus phellos (Willow Oak); parameters: key to Uniformity Rating (U): 0 = no effect from PGR; 1 = poor; 2 = fair; 3 = acceptable; 4 = very good; 5 = excellent; conditions: 38 ml/hole
Experimental: as §1, §2
10 (0.034 moles), 20 (0.068 moles) and 40 grams (0.136 moles) of (2RS, 3RS)-1-(4-chlorophenyl)-4,4-dimethyl-2-l,2,4-triazol-l-yl)pentan-3-ol (PGR) were dissolved in 1,1 and 1 liter, respectively, of methanol at room temperature and was stirred until the solution was clear, approximately 20 to 60 minutes. In these examples, the injection holes were placed at approximate 4 inch intervals.

Sycamore = test: Trunk injection, holes at 8 inch intervals, Retardation and Uniformity Ratings; type: in vivo, Platanus occidentalis (Sycamore); parameters: key to Uniformity Rating (U): 0 = no effect from PGR; 1 = poor; 2 = fair; 3 = acceptable; 4 = very good; 5 = excellent; conditions: 75 ml/hole
Experimental: as §1, §2, §3

[2] = week 24, 10 g PGR in 1 liter methanol, listed as 7, 10 injection holes, 750 ml per tree
[3] = week 24, 10 g PGR in 1 liter methanol, listed as 8, 10 injection holes, 750 ml per tree
[4] = week 24, 10 g PGR in 1 liter methanol, listed as 9, 6 injection holes, 450 ml per tree
[5] = week 24, 10 g PGR in 1 liter methanol, listed as 10, 6 injection holes, 450 ml per tree
[6] = week 24, 20 g PGR in 1 liter methanol, listed as 11
[7] = week 24, 20 g PGR in 1 liter methanol, listed as 12
[8] = week 24, 20 g PGR in 1 liter methanol, listed as 13
[9] = week 24, 40 g PGR in 1 liter methanol, listed as 15, 7 injection holes, 525 ml per tree
[10] = week 24, 40 g PGR in 1 liter methanol, listed as 16, 10 injection holes, 750 ml per tree
[11] = week 24, 40 g PGR in 1 liter methanol, listed as 17, 6 injection holes, 450 ml per tree
[12] = week 56, 10 g PGR in 1 liter methanol, listed as 7, 10 injection holes, 750 ml per tree
[13] = week 56, 10 g PGR in 1 liter methanol, listed as 8, 10 injection holes, 750 ml per tree
[14] = week 56, 10 g PGR in 1 liter methanol, listed as 9, 6 injection holes, 450 ml per tree
[15] = week 56, 10 g PGR in 1 liter methanol, listed as 10, 6 injection holes, 450 ml per tree
[16] = week 56, 20 g PGR in 1 liter methanol, listed as 11
[17] = week 56, 20 g PGR in 1 liter methanol, listed as 12
[18] = week 56, 20 g PGR in 1 liter methanol, listed as 13
[19] = week 56, 40 g PGR in 1 liter methanol, listed as 15, 7 injection holes, 525 ml per tree
[20] = week 56, 40 g PGR in 1 liter methanol, listed as 16, 10 injection holes, 750 ml per tree
[21] = week 56, 40 g PGR in 1 liter methanol, listed as 17, 6 injection holes, 450 ml per tree
[22] = week 24, 20 g PGR in 1 liter methanol
[23] = week 24, 40 g PGR in 1 liter methanol
[24] = week 56, 20 g PGR in 1 liter methanol
[25] = week 56, 40 g PGR in 1 liter methanol

Compound: CC(C)(C)[C@@H](O)[C@@H](Cc1ccc(Cl)cc1)n1cncn1 (racemic) [Formula (II), (2RS,3RS)-1-(4-chlorophenyl-4,4-dimethyl-2-1,2,4-triazol-1-yl)pentan-3-ol]
- Retardation Rating (R) (Water Oak; [2]): 2 (2 = 21-40% retardation)
- Uniformity Rating (U) (Water Oak; [2]): 3
- Retardation Rating (R) (Water Oak; [3]): 3 (3 = 41-60% retardation)
- Uniformity Rating (U) (Water Oak; [3]): 3
- Retardation Rating (R) (Water Oak; [4]): 3 (3 = 41-60% retardation)
- Uniformity Rating (U) (Water Oak; [4]): 3
- Retardation Rating (R) (Water Oak; [5]): 5 (5 = 81-100% retardation)
- Uniformity Rating (U) (Water Oak; [5]): 5
- Retardation Rating (R) (Water Oak; [6]): 2 (2 = 21-40% retardation)
- Uniformity Rating (U) (Water Oak; [6]): 3
- Retardation Rating (R) (Water Oak; [7]): 5 (5 = 81-100% retardation)
- Uniformity Rating (U) (Water Oak; [7]): 5
- Retardation Rating (R) (Water Oak; [8]): 4 (4 = 61-80% retardation)
- Uniformity Rating (U) (Water Oak; [8]): 4
- Retardation Rating (R) (Water Oak; [9]): 1 (1 = 1-20% retardation)
- Uniformity Rating (U) (Water Oak; [9]): 1
- Retardation Rating (R) (Water Oak; [10]): 0
- Uniformity Rating (U) (Water Oak; [10]): 0
- Retardation Rating (R) (Water Oak; [11]): 3 (3 = 41-60% retardation)
- Uniformity Rating (U) (Water Oak; [11]): 3
- Retardation Rating (R) (Water Oak; [12]): 3 (3 = 41-60% retardation)
- Uniformity Rating (U) (Water Oak; [12]): 3
- Retardation Rating (R) (Water Oak; [13]): 3 (3 = 41-60% retardation)
- Uniformity Rating (U) (Water Oak; [13]): 3
- Retardation Rating (R) (Water Oak; [14]): 5 (5 = 81-100% retardation)
- Uniformity Rating (U) (Water Oak; [14]): 4
- Retardation Rating (R) (Water Oak; [15]): 5 (5 = 81-100% retardation)
- Uniformity Rating (U) (Water Oak; [15]): 5
- Retardation Rating (R) (Water Oak; [16]): 4 (4 = 61-80% retardation)
- Uniformity Rating (U) (Water Oak; [16]): 5
- Retardation Rating (R) (Water Oak; [17]): 5 (5 = 81-100% retardation)
- Uniformity Rating (U) (Water Oak; [17]): 4
- Retardation Rating (R) (Water Oak; [18]): 4 (4 = 61-80% retardation)
- Uniformity Rating (U) (Water Oak; [18]): 4
- Retardation Rating (R) (Water Oak; [19]): 4 (4 = 61-80% retardation)
- Uniformity Rating (U) (Water Oak; [19]): 4
- Retardation Rating (R) (Water Oak; [20]): 3 (3 = 41-60% retardation)
- Uniformity Rating (U) (Water Oak; [20]): 3
- Retardation Rating (R) (Water Oak; [21]): 3 (3 = 41-60% retardation)
- Uniformity Rating (U) (Water Oak; [21]): 3
- solubility at 4 h ([1]; in water alone): 35 µg/mL
- solubility at 4 h ([1]; organic solvent or mixture, 10 % Methanol in water): 53 µg/mL
- solubility at 4 h ([1]; organic solvent or mixture, 20 % Methanol in water): 89 µg/mL
- solubility at 4 h ([1]; organic solvent or mixture, 50 % Methanol in water): 1200 µg/mL
- solubility at 4 h ([1]; organic solvent or mixture, 100 % Methanol): 56000 µg/mL
- solubility at 4 h ([1]; water (0% methanol), organic solvent or mixture, 0 % Methanol): 35 µg/mL
- Retardation Rating (R) (Willow Oak; [22]): 4 (4 = 61-80% retardation)
- Uniformity Rating (U) (Willow Oak; [22]): 3
- Retardation Rating (R) (Willow Oak; [23]): 4 (4 = 61-80% retardation)
- Uniformity Rating (U) (Willow Oak; [23]): 4
- Retardation Rating (R) (Willow Oak; [24]): 5 (5 = 81-100% retardation)
- Uniformity Rating (U) (Willow Oak; [24]): 5
- Retardation Rating (R) (Willow Oak; [25]): 4 (4 = 61-80% retardation)
- Uniformity Rating (U) (Willow Oak; [25]): 4
- Retardation Rating (R) (Sycamore; [22]): 3 (3 = 41-60% retardation)
- Uniformity Rating (U) (Sycamore; [22]): 4
- Retardation Rating (R) (Sycamore; [24]): 4 (4 = 61-80% retardation)
- Uniformity Rating (U) (Sycamore; [24]): 4
